Source: US20230015823A1, “METHODS OF ADMINISTERING VOXELOTOR” (Global Blood Therapeutics, Inc., priority 2019, published 2023)
Read-outs that look alike come from different tables or passages of the source.

Assay: Phase 1 study of a single oral dose of voxelotor in subjects with hepatic impairment: whole blood and plasma PK
Assay type: in vivo, human
Settings: human; for half-life: read-out: t1/2, mean (converted); for Vd/F: read-out: Vz/F, GM (converted); for Tmax: read-out: tmax, median (converted)
Description: A Phase 1, open-label study was performed to characterize pharmacokinetics (PK) and safety of a single oral dose of voxelotor in subjects with hepatic impairment. The study was to assess the effects of mild, moderate, or severe hepatic impairment on the PK of a single oral dose of voxelotor, to evaluate the safety and tolerability of a single oral dose of voxelotor in subjects with mild, moderate, or severe hepatic impairment, as well as to establish potential dose adjustment guidance based upon the degree of hepatic insufficiency. […] This study was designed to assess the effects of mild, moderate, or severe hepatic impairment on the PK of a single oral dose of voxelotor. Routine safety assessments (AE monitoring, vital signs, physical examinations, clinical laboratory tests, and ECGs) were performed. Eligible subjects received a single oral dose of voxelotor 1500 mg (5×300-mg capsules) on Day 1 (for normal hepatic function, mild and moderate hepatic impairment). […] No food was allowed for at least 4 hours postdose. No water or any type of liquid was allowed for 1 hour before dosing through 1-hour postdose with the exception of water consumed for dosing. Adverse events and concomitant medication use were monitored throughout the study. Safety assessments, including physical examinations, vital signs assessments, 12-lead ECGs, and clinical laboratory tests, were performed. Whole blood and plasma concentrations of voxelotor were determined using validated assays. […] Louis, Mo.) and actual sampling times. The following PK parameters were determined. To assess the effect of hepatic impairment on the PK of voxelotor, a linear mixed-effect model was fitted to the log-transformed values of whole blood and plasma Cmax, AUCt, and AUCinf. The model included hepatic impairment group as a fixed effect and age and weight as covariates. Point estimates and 90% CIs for hepatic function group differences (mild, moderate, and severe hepatically-impaired subjects [test] versus the normal hepatic function subjects [control]) on the log scale were exponentiated to obtain estimates for GM ratios on the original scale. Voxelotor whole blood and plasma concentrations were measured using a validated liquid chromatography-mass spectrometry method. The lower limit of assay quantitation for voxelotor was 10.0 ng/mL for whole blood and 5.00 ng/mL in plasma.

[1] = plasma, po, 600 mg, plasma, severe hepatic impairment, 600 mg single oral dose
[2] = plasma, po, 1500 mg, plasma, mild hepatic impairment, 1500 mg single oral dose
[3] = plasma, po, 1500 mg, plasma, moderate hepatic impairment, 1500 mg single oral dose
[4] = plasma, po, 1500 mg, plasma, normal hepatic function, 1500 mg single oral dose

## CC(C)n1nccc1-c1ncccc1COc1cccc(O)c1C=O [voxelotor, 2-hydroxy-6-((2-(1-isopropyl-1H-pyrazol-5-yl)pyridin-3-yl)methoxy)benzaldehyde]
In vivo, plasma, mild hepatic impairment, 1500 mg single oral dose
  half-life: 2.98 days
plasma, oral, 600 mg, plasma, severe hepatic impairment (Test), 600 mg, adjusted for dose to 1500 mg, read-out: AUCinf, Geometric LS Mean
  AUC(0-inf): 394 µg·h/mL
plasma, oral, 600 mg, plasma, severe hepatic impairment (Test), 600 mg, adjusted for dose to 1500 mg, read-out: AUCt, Geometric LS Mean
  AUC(0-t): 388 µg·h/mL
plasma, oral, 600 mg, plasma, severe hepatic impairment (Test), 600 mg, adjusted for dose to 1500 mg, read-out: Cmax, Geometric LS Mean
  Cmax: 2900 ng/mL
plasma, oral, 1500 mg, plasma, mild hepatic impairment (Test), 1500 mg, read-out: AUCinf, Geometric LS Mean
  AUC(0-inf): 223 µg·h/mL
plasma, oral, 1500 mg, plasma, mild hepatic impairment (Test), 1500 mg, read-out: AUCt, Geometric LS Mean
  AUC(0-t): 221 µg·h/mL
plasma, oral, 1500 mg, plasma, mild hepatic impairment (Test), 1500 mg, read-out: Cmax, Geometric LS Mean
  Cmax: 2360 ng/mL
plasma, oral, 1500 mg, plasma, moderate hepatic impairment (Test), 1500 mg, read-out: AUCinf, Geometric LS Mean
  AUC(0-inf): 240 µg·h/mL
plasma, oral, 1500 mg, plasma, moderate hepatic impairment (Test), 1500 mg, read-out: AUCt, Geometric LS Mean
  AUC(0-t): 245 µg·h/mL
plasma, oral, 1500 mg, plasma, moderate hepatic impairment (Test), 1500 mg, read-out: Cmax, Geometric LS Mean
  Cmax: 3030 ng/mL
plasma, oral, 1500 mg, plasma, normal hepatic function (Reference), 1500 mg, read-out: AUCinf, Geometric LS Mean
  AUC(0-inf): 204 µg·h/mL
plasma, oral, 1500 mg, plasma, normal hepatic function (Reference), 1500 mg, read-out: AUCt, Geometric LS Mean
  AUC(0-t): 203 µg·h/mL
plasma, oral, 1500 mg, plasma, normal hepatic function (Reference), 1500 mg, read-out: Cmax, Geometric LS Mean
  Cmax: 2010 ng/mL
plasma, po, 600 mg, plasma, severe hepatic impairment, 600 mg single oral dose, adjusted for dose to 1500 mg, read-out: AUC0-96, GM (converted)
  AUC(0-t): 177 µg·h/mL
plasma, po, 600 mg, plasma, severe hepatic impairment, 600 mg single oral dose, adjusted for dose to 1500 mg, read-out: AUCinf, GM (converted)
  AUC(0-inf): 393 µg·h/mL
plasma, po, 600 mg, plasma, severe hepatic impairment, 600 mg single oral dose, adjusted for dose to 1500 mg, read-out: AUCt, GM (converted)
  AUC(0-t): 386 µg·h/mL
plasma, po, 600 mg, plasma, severe hepatic impairment, 600 mg single oral dose, adjusted for dose to 1500 mg, read-out: Cmax, GM (converted)
  Cmax: 2960 ng/mL
[1]
  Vd/F: 592 L
  half-life: 4.54 days
  Tmax: 4 h
plasma, po, 1500 mg, plasma, mild hepatic impairment, 1500 mg single oral dose, read-out: AUC0-96, GM (converted)
  AUC(0-t): 143 µg·h/mL
plasma, po, 1500 mg, plasma, mild hepatic impairment, 1500 mg single oral dose, read-out: AUCinf, GM (converted)
  AUC(0-inf): 224 µg·h/mL
plasma, po, 1500 mg, plasma, mild hepatic impairment, 1500 mg single oral dose, read-out: AUCt, GM (converted)
  AUC(0-t): 223 µg·h/mL
plasma, po, 1500 mg, plasma, mild hepatic impairment, 1500 mg single oral dose, read-out: Cmax, GM (converted)
  Cmax: 2390 ng/mL
[2]
  Vd/F: 674 L
  Tmax: 4 h
plasma, po, 1500 mg, plasma, moderate hepatic impairment, 1500 mg single oral dose, read-out: AUC0-96, GM (converted)
  AUC(0-t): 146 µg·h/mL
plasma, po, 1500 mg, plasma, moderate hepatic impairment, 1500 mg single oral dose, read-out: AUCinf, GM (converted)
  AUC(0-inf): 244 µg·h/mL
plasma, po, 1500 mg, plasma, moderate hepatic impairment, 1500 mg single oral dose, read-out: AUCt, GM (converted)
  AUC(0-t): 252 µg·h/mL
plasma, po, 1500 mg, plasma, moderate hepatic impairment, 1500 mg single oral dose, read-out: Cmax, GM (converted)
  Cmax: 2910 ng/mL
[3]
  Vd/F: 789 L
  half-life: 3.75 days
  Tmax: 5 h
plasma, po, 1500 mg, plasma, normal hepatic function, 1500 mg single oral dose, read-out: AUC0-96, GM (converted)
  AUC(0-t): 120 µg·h/mL
plasma, po, 1500 mg, plasma, normal hepatic function, 1500 mg single oral dose, read-out: AUCinf, GM (converted)
  AUC(0-inf): 200 µg·h/mL
plasma, po, 1500 mg, plasma, normal hepatic function, 1500 mg single oral dose, read-out: AUCt, GM (converted)
  AUC(0-t): 199 µg·h/mL
plasma, po, 1500 mg, plasma, normal hepatic function, 1500 mg single oral dose, read-out: Cmax, GM (converted)
  Cmax: 2010 ng/mL
[4]
  Vd/F: 865 L
  half-life: 3.37 days
  Tmax: 4 h
Whole blood, oral, 600 mg, whole blood, severe hepatic impairment (Test), 600 mg, adjusted for dose to 1500 mg, read-out: AUCinf, Geometric LS Mean
  AUC(0-inf): 13600 µg·h/mL
Whole blood, oral, 600 mg, whole blood, severe hepatic impairment (Test), 600 mg, adjusted for dose to 1500 mg, read-out: AUCt, Geometric LS Mean
  AUC(0-t): 13300 µg·h/mL
Whole blood, oral, 600 mg, whole blood, severe hepatic impairment (Test), 600 mg, adjusted for dose to 1500 mg, read-out: Cmax, Geometric LS Mean
  Cmax: 85400 ng/mL
Whole blood, oral, 1500 mg, whole blood, mild hepatic impairment (Test), 1500 mg, read-out: AUCinf, Geometric LS Mean
  AUC(0-inf): 8160 µg·h/mL
Whole blood, oral, 1500 mg, whole blood, mild hepatic impairment (Test), 1500 mg, read-out: AUCt, Geometric LS Mean
  AUC(0-t): 8120 µg·h/mL
Whole blood, oral, 1500 mg, whole blood, mild hepatic impairment (Test), 1500 mg, read-out: Cmax, Geometric LS Mean
  Cmax: 72900 ng/mL
Whole blood, oral, 1500 mg, whole blood, moderate hepatic impairment (Test), 1500 mg, read-out: AUCinf, Geometric LS Mean
  AUC(0-inf): 8230 µg·h/mL
Whole blood, oral, 1500 mg, whole blood, moderate hepatic impairment (Test), 1500 mg, read-out: AUCt, Geometric LS Mean
  AUC(0-t): 8190 µg·h/mL
Whole blood, oral, 1500 mg, whole blood, moderate hepatic impairment (Test), 1500 mg, read-out: Cmax, Geometric LS Mean
  Cmax: 64900 ng/mL
Whole blood, oral, 1500 mg, whole blood, normal hepatic function (Reference), 1500 mg, read-out: AUCinf, Geometric LS Mean
  AUC(0-inf): 7150 µg·h/mL
Whole blood, oral, 1500 mg, whole blood, normal hepatic function (Reference), 1500 mg, read-out: AUCt, Geometric LS Mean
  AUC(0-t): 7130 µg·h/mL
Whole blood, oral, 1500 mg, whole blood, normal hepatic function (Reference), 1500 mg, read-out: Cmax, Geometric LS Mean
  Cmax: 61400 ng/mL
Whole blood, po, 600 mg, whole blood, severe hepatic impairment, 600 mg single oral dose, adjusted for dose to 1500 mg, read-out: AUC0-96, GM (converted)
  AUC(0-t): 6050 µg·h/mL
Whole blood, po, 600 mg, whole blood, severe hepatic impairment, 600 mg single oral dose, adjusted for dose to 1500 mg, read-out: AUCinf, GM (converted)
  AUC(0-inf): 13600 µg·h/mL
Whole blood, po, 600 mg, whole blood, severe hepatic impairment, 600 mg single oral dose, adjusted for dose to 1500 mg, read-out: AUCt, GM (converted)
  AUC(0-t): 13300 µg·h/mL
Whole blood, po, 600 mg, whole blood, severe hepatic impairment, 600 mg single oral dose, adjusted for dose to 1500 mg, read-out: Cmax, GM (converted)
  Cmax: 86600 ng/mL
Whole blood, po, 600 mg, whole blood, severe hepatic impairment, 600 mg single oral dose
  Vd/F: 17.6 L
